Experimental data from patent US20210228825A1, “METHODS FOR DIAGNOSING BRUGADA SYNDROME USING AN AEROSOL” (InCarda Therapeutics, Inc., priority 2018, published 2021).
Like-named read-outs stand apart in the source and are kept apart here.

Test: Pharmacokinetics analysis in human clinical trial FLE-001, inhalation versus intravenous flecainide, venous plasma
Type: in vivo
Conditions: healthy adult volunteers, read-out: Peak plasma concentration of flecainide (Cmax)
Experimental: This example describes pharmacokinetics (PK) analysis performed during a human clinical trial (FLE-001) in which inhalation administration of flecainide was tested for safety and compared against intravenous administration of flecainide.
This was an open label non-randomized crossover in a cohort of 6 evaluable healthy adult volunteers. This part of the study consisted of two periods with each subject receiving a total of 2 doses of flecainide, one dose in each period. In Period 1, 3 subjects received flecainide acetate solution by inhalation at the dose level of 30 mg estimated lung total dose (eTLD). and 3 subjects received a single dose of 2 mg/kg (or 150 mg, whichever is less) via a 10 min intravenous (IV) infusion of flecainide (Tambocor™ Injection; approved and used in clinical practice in Australia). In Period 2, the subjects who received flecainide inhalation solution in Period 1 now received a single dose of IV flecainide (2 mg/kg or 150 mg, whichever is less, via a 10 min infusion), while the subjects who received IV flecainide in Period 1 now received flecainide inhalation solution (30 mg eTLD). […] The interpretation is that there was no carry over effect of treatment or other changes in the subjects' vital signs and ECG intervals between the two periods. […]

Cmax (intravenous 2 mg/kg (or 150 mg, whichever is less), 10 min infusion, mean±SD): 749 ± 308 ng/mL
Cmax (inhaled, inhalation of flecainide acetate solution, 30 mg eTLD): 120 ng/mL
Structure (SMILES): O=C(NCC1CCCCN1)c1cc(OCC(F)(F)F)ccc1OCC(F)(F)F (centres unmarked) [flecainide]
